Tests used:
Format in all cases: biochemical
[1] = target: MAP4K4 (Homo sapiens, UniProt O95819); test: AlphaScreen kinase assay, MAP4K4; details: read-out: IC50, activity toward kinase MAP4K4
[2] = target: T1, Flt3 (Homo sapiens, UniProt P36888); test: Z'-Lyte FRET kinase assay (Invitrogen), Flt3; details: read-out: IC50, activity toward kinase Flt3
T1 construct: purchased Invitrogen (assay run by Invitrogen)
T1 sequence (P36888 27-993): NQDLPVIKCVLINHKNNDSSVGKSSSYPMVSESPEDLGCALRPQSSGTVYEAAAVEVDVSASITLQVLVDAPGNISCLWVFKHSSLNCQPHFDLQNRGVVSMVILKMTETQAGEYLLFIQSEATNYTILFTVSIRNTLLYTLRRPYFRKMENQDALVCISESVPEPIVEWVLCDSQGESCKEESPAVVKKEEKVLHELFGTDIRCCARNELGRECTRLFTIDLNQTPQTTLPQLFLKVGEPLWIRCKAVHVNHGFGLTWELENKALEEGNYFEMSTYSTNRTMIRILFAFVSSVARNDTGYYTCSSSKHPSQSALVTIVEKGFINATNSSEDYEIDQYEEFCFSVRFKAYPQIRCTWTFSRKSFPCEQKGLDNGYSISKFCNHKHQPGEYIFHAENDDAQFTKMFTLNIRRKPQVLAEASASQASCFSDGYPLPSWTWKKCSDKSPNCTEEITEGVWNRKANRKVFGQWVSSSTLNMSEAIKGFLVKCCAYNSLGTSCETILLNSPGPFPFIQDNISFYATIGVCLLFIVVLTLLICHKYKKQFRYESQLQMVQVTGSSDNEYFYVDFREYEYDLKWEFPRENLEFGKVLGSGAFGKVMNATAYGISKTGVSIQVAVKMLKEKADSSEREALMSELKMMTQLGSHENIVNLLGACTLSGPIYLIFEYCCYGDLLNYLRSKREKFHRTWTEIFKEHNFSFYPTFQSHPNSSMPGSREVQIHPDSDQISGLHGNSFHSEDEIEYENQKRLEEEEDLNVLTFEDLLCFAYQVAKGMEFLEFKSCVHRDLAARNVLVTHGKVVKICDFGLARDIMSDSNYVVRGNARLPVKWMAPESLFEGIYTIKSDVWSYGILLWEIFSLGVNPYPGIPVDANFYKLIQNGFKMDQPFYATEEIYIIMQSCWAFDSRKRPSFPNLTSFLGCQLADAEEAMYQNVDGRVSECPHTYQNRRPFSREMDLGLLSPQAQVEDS
From the text: The effect of potential modulators of kinase activity can be measured in a variety of different assays known in the art. For example, direct radiometric, indirect FRET or AlphaScreen assays may be used to assess the level of phosphorylation of a substrate in the presence of test compounds in order to determine the inhibitory affect of the compound on the kinase. Invitrogen (Carlsbad, Calif.) uses a FRET based assay for Btk, EGFR, EphB2, Flt3, lrak4, Kdr, MAP2K1, MAPKAPK2, PDGFRB, PKC theta, Stk6 and Yes. For these assays, compounds of the invention were screened by Invitrogen using Z′-Lyte™ kinase assay.
Briefly, the Invitrogen kinase assay involves use of a specific peptide substrate optimized for each kinase, containing a fluorophore at each end that make up the FRET pair. The peptide sensitivity to proteolytic cleavage depends on phosphorylation of the peptide. Non-phosphorylated peptide is cleaved by a protease while peptide phosphorylated by the kinase is not cleaved. Cleavage of the peptide disrupts the FRET between the donor (coumarin) and acceptor (fluorescein) fluorophores, resulting in an increase in the ratio of donor emission to acceptor emission. The emission ratio of coumarin to fluorescein is used to assess the reaction progress. The extent of phosphorylation is determined from the emission ratio, which is low when the kinase is active (phosphorylated peptide is not cleaved, FRET pair connected) or higher for inhibited kinase (non-phosphorylated peptide is cleaved, FRET pair separated). Thus, the assay involves a kinase reaction in the presence of varying concentrations of a given compound, a development reaction with site specific protease, and detection of the fluorescent emission ratio of coumarin and fluorscein. […] Reaction conditions for each kinase are determined to provide optimal reaction times, incubation temperature, kinase and ATP concentrations. Test samples are made up in 1× kinase buffer (50 mM HEPES pH 7.5, 50 mM MgCl2, 5 mM EGTA, 0.05% BRIJ-35) and compound at desired concentration prepared in DMSO such that the final DMSO is 1%. […] Typically, assay plates are prepared to 10 μl final volume per sample, adding 2.5 μl of compound at 4× the desired concentration in 4% DMSO (serial dilution of compound provides concentration curve), 5 μl of the desired kinase mixed with Z′-LYTE™ peptide substrate (2× in 2× kinase buffer, final peptide at 2 μM), and 2.5 μl of 4×ATP solution. All kinase except for MAP2K1 were at 10 μM ATP in the kinase reaction, while MAP2K1 was at 100 μM. Samples are mixed and the kinase reaction is incubated 1 hour at room temperature, after which 5 μl of development solution is added and mixed. After incubation for another 1 hour at room temperature, 5 μl of stop reagent is added to each sample and mixed. The fluorescence signals are measured to determine the emission ratio.

[3] = target: Gsk3β (Homo sapiens, UniProt P49841); test: AlphaScreen kinase assay, Gsk3β; details: read-out: IC50, activity toward kinase Gsk3β
Sequence of Gsk3β (P49841 whole entry): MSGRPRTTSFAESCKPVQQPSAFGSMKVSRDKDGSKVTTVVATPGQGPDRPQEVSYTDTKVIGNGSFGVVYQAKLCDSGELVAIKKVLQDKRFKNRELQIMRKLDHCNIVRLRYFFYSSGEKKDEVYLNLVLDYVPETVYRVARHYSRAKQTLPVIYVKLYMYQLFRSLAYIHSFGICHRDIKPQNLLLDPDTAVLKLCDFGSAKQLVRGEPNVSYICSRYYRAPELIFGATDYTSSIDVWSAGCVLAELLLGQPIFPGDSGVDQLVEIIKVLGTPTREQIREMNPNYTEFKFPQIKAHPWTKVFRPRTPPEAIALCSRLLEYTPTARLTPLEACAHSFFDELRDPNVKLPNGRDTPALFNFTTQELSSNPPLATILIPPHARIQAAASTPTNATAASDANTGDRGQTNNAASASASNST
How it was run: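 Inhibition reads as diminished acceptor emission, since unphosphorylated peptide fails to bridge antibody acceptor beads and streptavidin donor beads. Titration: eight points, 1:3 steps, stocks at 20 mM in DMSO.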

[4] = target: PDGFRA (Homo sapiens, UniProt P16234); test: AlphaScreen kinase assay, PDGFRA; details: read-out: IC50, activity toward kinase PDGFRA
Sequence of PDGFRA (P16234 24-1089): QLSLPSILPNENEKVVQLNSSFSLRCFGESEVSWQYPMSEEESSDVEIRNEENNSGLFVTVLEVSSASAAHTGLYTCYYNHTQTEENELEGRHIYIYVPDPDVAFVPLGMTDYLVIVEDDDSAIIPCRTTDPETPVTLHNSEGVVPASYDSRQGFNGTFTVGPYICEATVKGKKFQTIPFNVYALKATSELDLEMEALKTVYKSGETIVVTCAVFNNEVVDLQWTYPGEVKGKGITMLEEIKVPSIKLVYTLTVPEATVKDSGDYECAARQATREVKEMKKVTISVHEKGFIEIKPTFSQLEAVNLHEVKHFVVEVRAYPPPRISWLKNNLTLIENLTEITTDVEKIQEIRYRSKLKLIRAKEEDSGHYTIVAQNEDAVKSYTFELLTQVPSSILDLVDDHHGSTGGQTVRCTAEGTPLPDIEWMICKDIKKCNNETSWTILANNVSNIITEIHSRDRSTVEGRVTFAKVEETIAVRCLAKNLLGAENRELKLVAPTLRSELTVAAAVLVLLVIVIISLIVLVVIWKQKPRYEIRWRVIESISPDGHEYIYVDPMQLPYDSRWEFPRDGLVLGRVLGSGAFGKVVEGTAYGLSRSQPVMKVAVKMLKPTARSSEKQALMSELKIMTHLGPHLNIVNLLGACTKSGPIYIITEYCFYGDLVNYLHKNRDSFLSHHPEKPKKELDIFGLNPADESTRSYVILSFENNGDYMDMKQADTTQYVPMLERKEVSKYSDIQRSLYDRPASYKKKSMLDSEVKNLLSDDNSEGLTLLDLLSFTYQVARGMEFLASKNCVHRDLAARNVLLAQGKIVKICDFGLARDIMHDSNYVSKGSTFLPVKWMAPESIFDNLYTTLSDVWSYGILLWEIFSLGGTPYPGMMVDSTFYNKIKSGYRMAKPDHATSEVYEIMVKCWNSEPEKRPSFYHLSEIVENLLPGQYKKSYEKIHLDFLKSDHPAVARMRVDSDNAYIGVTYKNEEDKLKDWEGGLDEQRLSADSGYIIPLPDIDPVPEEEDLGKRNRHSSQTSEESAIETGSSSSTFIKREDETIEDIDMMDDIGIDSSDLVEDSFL
From the text: AlphaScreen assay was used to screen additional kinases. The assay is similarly dependent on the phosphorylation of a peptide substrate. In this assay, an antibody that recognizes phosphorylated substrate is bound to an acceptor bead. The peptide substrate is attached to biotin, which binds to a donor head that contains streptavidin. Thus phosphorylated substrate is bound by antibody and streptavidin, bringing the donor and acceptor heads into close proximity when kinase is not inhibited. The donor produces singlet oxygen which results in emission from the acceptor when they are in close proximity. Conversely, when kinase is inhibited, the donor and acceptor beads are not associated and the emission from the acceptor is reduced.
AlphaScreen assays were done using compounds dissolved in DMSO to a concentration of 20 mM. The compounds were diluted accordingly to the desired final concentrations in each sample well, using 1:3 serial dilution for a total of 8 concentration points.

Sequence of MAP4K4 (O95819 whole entry): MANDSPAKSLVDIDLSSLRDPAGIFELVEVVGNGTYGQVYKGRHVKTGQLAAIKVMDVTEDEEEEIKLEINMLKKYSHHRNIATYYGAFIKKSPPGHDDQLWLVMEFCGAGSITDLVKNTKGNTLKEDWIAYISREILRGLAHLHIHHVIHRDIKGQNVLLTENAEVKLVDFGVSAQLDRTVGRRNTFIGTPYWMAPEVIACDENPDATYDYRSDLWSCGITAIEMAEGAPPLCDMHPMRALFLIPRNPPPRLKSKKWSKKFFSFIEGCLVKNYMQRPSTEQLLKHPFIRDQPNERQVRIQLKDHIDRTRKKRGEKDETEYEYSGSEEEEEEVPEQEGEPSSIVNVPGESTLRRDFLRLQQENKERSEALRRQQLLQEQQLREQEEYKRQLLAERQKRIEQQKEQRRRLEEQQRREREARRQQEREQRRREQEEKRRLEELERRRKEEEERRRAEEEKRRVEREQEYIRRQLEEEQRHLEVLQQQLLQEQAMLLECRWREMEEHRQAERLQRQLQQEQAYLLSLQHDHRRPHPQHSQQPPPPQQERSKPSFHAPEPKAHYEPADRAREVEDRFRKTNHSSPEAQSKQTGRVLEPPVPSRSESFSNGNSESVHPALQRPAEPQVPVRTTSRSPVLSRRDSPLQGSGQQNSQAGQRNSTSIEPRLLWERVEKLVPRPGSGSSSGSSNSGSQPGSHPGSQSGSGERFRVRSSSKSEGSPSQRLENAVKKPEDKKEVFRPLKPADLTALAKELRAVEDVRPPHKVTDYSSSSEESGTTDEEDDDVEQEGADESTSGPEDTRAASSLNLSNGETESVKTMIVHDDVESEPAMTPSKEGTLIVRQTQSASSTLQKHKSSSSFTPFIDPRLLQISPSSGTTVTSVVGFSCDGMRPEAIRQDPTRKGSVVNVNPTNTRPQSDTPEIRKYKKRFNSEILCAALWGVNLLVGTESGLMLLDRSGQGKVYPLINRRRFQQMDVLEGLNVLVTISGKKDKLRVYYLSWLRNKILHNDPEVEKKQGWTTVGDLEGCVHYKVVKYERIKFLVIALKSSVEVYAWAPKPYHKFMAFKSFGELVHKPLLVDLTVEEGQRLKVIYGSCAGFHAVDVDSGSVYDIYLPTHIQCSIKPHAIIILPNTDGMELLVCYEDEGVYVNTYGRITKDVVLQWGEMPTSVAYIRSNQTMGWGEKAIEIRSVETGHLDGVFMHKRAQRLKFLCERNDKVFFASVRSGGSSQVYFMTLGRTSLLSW

Structure (SMILES)	IC50 [1]	IC50 [2]	IC50 [3]	IC50 [4]
O=C(Nc1ccc(Cc2c[nH]c3ncccc23)cc1)Nc1cccc(C(F)(F)F)c1 [Compound P-0262, 1-[4-(1H-Pyrrolo[2,3-b]pyridin-3-ylmethyl)-phenyl]-3-(3-trifluoromethyl-phenyl)-urea]	–	≤ 10 µM	–	–
Cc1ccccc1C(=O)c1c[nH]c2nccc(-c3ccc(C(N)=O)cc3)c12 [Compound P-0017]	–	–	≤ 10 µM	–
COc1ccc(C(=O)c2c[nH]c3ncc(-c4cccc(/C=C/C(=O)O)c4)cc23)c(Cl)c1 [Compound P-0015]	–	–	≤ 10 µM	–
CCCS(=O)(=O)Nc1ccc(F)c(C(=O)c2c[nH]c3ncc(-c4cccnc4)cc23)c1F [Compound P-0088, Propane-1-sulfonic acid [2,4-difluoro-3-(5-pyridin-3-yl-1H-pyrrolo[2,3-b]pyridine-3-carbonyl)-phenyl]-amide]	≤ 10 µM	≤ 10 µM	–	–
CCCS(=O)(=O)Nc1ccc(F)c(C(=O)c2c[nH]c3ncccc23)c1F [Compound P-0007, Propane-1-sulfonic acid [2,4-difluoro-3-(1H-pyrrolo[2,3-b]pyridine-3-carbonyl)-phenyl]-amide]	≤ 10 µM	–	≤ 10 µM	≤ 10 µM
Fc1cc(F)cc(-c2ccnc3[nH]cc(Sc4ccccn4)c23)c1 [Compound P-0106]	–	–	≤ 10 µM	–
Cc1c(NS(C)(=O)=O)cccc1C(=O)c1c[nH]c2ncc(-c3ccccc3)cc12 [Compound P-0082, N-[2-Methyl-3-(5-phenyl-1H-pyrrolo[2,3-b]pyridine-3-carbonyl)-phenyl]-methanesulfonamide]	≤ 10 µM	–	–	–
CCCS(=O)(=O)Nc1ccc(F)c(C(=O)c2c[nH]c3ncc(OC)cc23)c1F [Compound P-0806, Propane-1-sulfonic acid [2,4-difluoro-3-(5-methoxy-1H-pyrrolo[2,3-b]pyridine-3-carbonyl)-phenyl]-amide]	≤ 10 µM	≤ 10 µM	–	≤ 10 µM
Cc1ccccc1C(=O)c1c[nH]c2nccc(-c3cccc(NS(C)(=O)=O)c3)c12 [Compound P-0109]	–	–	≤ 10 µM	–
CCCS(=O)(=O)Nc1ccc(F)c(C(=O)c2c[nH]c3ncc(-c4ccccc4)cc23)c1F [Compound P-0636, Propane-1-sulfonic acid [2,4-difluoro-3-(5-phenyl-1H-pyrrolo[2,3-b]pyridine-3-carbonyl)-phenyl]-amide]	–	≤ 10 µM	–	–

The remaining lines, values ahead:

IC50 [1]	IC50 [2]	IC50 [3]	IC50 [4]	Structure (SMILES)
≤ 10 µM	≤ 10 µM	–	–	CCCCNC(=O)Nc1ccc(F)c(C(=O)c2c[nH]c3ncc(-c4cccnc4)cc23)c1F [Compound P-1318, 1-Butyl-3-[2,4-difluoro-3-(5-pyridin-3-yl-1H-pyrrolo[2,3-b]pyridine-3-carbonyl)-phenyl]-urea]
≤ 10 µM	≤ 10 µM	≤ 10 µM	≤ 10 µM	COc1cccc(C(=O)c2c[nH]c3ncc(-c4cccc(NC(C)=O)c4)cc23)c1F [Compound P-1336, N-{3-[3-(2-Fluoro-3-methoxy-benzoyl)-1H-pyrrolo[2,3-b]pyridin-5-yl]-phenyl}-acetamide]
≤ 10 µM	≤ 10 µM	≤ 10 µM	≤ 10 µM	COc1cc(OC)cc(C(=O)c2c[nH]c3ncc(-c4cccc(NS(C)(=O)=O)c4)cc23)c1 [Compound P-1426, N-{3-[3-(3,5-Dimethoxy-benzoyl)-1H-pyrrolo[2,3-b]pyridin-5-yl]-phenyl}-methanesulfonamide]
≤ 10 µM	≤ 10 µM	–	≤ 10 µM	CCCC(=O)Nc1ccc(F)c(Cc2c[nH]c3ncc(-c4cccnc4)cc23)c1F [Compound P-1280]
≤ 10 µM	≤ 10 µM	–	≤ 10 µM	OCCOc1ccc(F)c(Cc2c[nH]c3ncc(-c4cccnc4)cc23)c1F [Compound P-1394, 2-[2,4-Difluoro-3-(5-pyridin-3-yl-1H-pyrrolo[2,3-b]pyridin-3-ylmethyl)-phenoxy]-ethanol]

— US8415469B2, “Compounds and methods for kinase modulation, and indications therefor” (Plexxikon Inc., priority 2005, dated 2013)
